Laboratory results taken from patent US8232407B2, “Nitrogenous heterocyclic compounds with insecticidal activity, and the preparation and use thereof” (East China University of Science and Technology, priority 2008, dated 2012).

Columns and labels:
Format in all cases: in vivo
Details in all cases: in vivo
[1] = test system: Pseudaletia separate Walker; experiment: Insecticidal activities to armyworm, leaf dipping and feeding
Method in brief: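 Armyworms (10 per tumbler, 3 replicates) ate fresh maize leaves that had been immersed for 3 seconds in compound solutions of 1.57-500 ppm in acetone, or in aqueous acetone for controls. Kills were scored at 24 h, and mortality was calculated relative to survivors in the control group.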

Plutella xylostella = experiment: Insecticidal activities to diamondback moth, feeding dipped leaves
Method in brief: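 Mortality was scored 24 h after larvae of Plutella xylostella (10 per treatment, 3 repeats) fed on cabbage leaves immersed 3 s in test solution and dried at room temperature. It was computed relative to survivors in a water-treated control.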

Nilaparvata lugens = experiment: Insecticidal activities to plant hopper, spraying method
Method in brief: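 Spray test: acetone solutions of 500 down to 0.79 ppm, 2 ml per tumbler holding 10 planthoppers introduced 6 h earlier, triplicate, aqueous acetone as control. Mortality at 24 h calculated from survivors relative to control.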

Aphis craccivoral = experiment: Insecticidal activities to aphids, immersion method
Method in brief: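 Immersion assay: compound diluted from 10 g/L DMF stock to 500 ppm in 0.2 mL/L Triton X-100, sprout-feeding wingless adults dipped 5 s. Kept at 23° C, three repeats; 24 h mortality calculated relative to surviving Triton-treated controls.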

| Compound | Pseudaletia separate Walker Mortality (%) 500 ppm [1] [%] | Plutella xylostella Mortality (%) 500 ppm (Plutella xylostella) [%] | Nilaparvata lugens Mortality (%) 500 ppm (Nilaparvata lugens) [%] | Aphis craccivoral Mortality (%) 500 ppm (Aphis craccivoral) [%] |
| --- | --- | --- | --- | --- |
| CC(c1ccc(Cl)nc1)N1CCN=C1C(=Cc1ccc(Cl)o1)[N+](=O)[O-] (racemic) [Compound 125] | 98 | 100 | 100 | 100 |
| O=[N+]([O-])C(=Cc1ccc(F)nc1)C1=NCCN1Cc1ccc(Cl)nc1 [Compound 41] | 100 | 100 | 87 | 89 |
| O=[N+]([O-])C(=Cc1cnco1)C1=NCCN1Cc1ccc(Cl)nc1 [Compound 33] | 100 | 100 | 100 | 100 |
| CC[N+]1=C(C(=Cc2ccc(Cl)o2)[N+](=O)[O-])N(Cc2ccc(Cl)nc2)CC1.[Cl-] [Compound 288] | 100 | 100 | 100 | 100 |
